Reference: US20120129843A1, “PYRIDYL-THIAZOLYL INHIBITORS OF PRO-MATRIX METALLOPROTEINASE ACTIVATION” (priority 2010, published 2012)
Where a name gives a salt, the structure may show the parent alone.

What was measured:
[1] = molecular target: T1, proMMP13(1-268) (SEQ ID NO:7) (Homo sapiens, UniProt P45452); experiment: ThermoFluor binding assay with proMMP13(1-268)
T1 construct: 6xHis (C); made in house; host or cells: HEK293 (transient, secreted)
Experimental: The ThermoFluor® (TF) assay is a 384-well plate-based binding assay that measures thermal stability of proteins (Biomol Screen 2001, 6, 429-40; Biochemistry 2005, 44, 5258-66). The experiments were carried out using instruments available from Johnson & Johnson Pharmaceutical Research & Development, LLC. TF dye used in all experiments was […] (1,8-ANS) (Invitrogen: A-47).
Compounds were arranged in a pre-dispensed plate (Greiner Bio-one: 781280), wherein compounds were serially diluted in 100% DMSO across 11 columns within a series. Columns 12 and 24 were used as DMSO reference and contained no compound. For multiple compound concentration-response experiments, the compound aliquots ([…]) were robotically predispensed directly into black 384-well polypropylene PCR microplates (Abgene: TF-0384/k) using a Cartesian Hummingbird liquid handler (DigiLab, Holliston, Mass.). Following compound dispense, protein and dye solutions were added to achieve the final assay volume of 3 μL. The assay solutions were overlayed with 1 μL of silicone oil (Fluka, type DC 200: 85411) to prevent evaporation.
Assay plates were robotically loaded onto a thermostatically controlled PCR-type thermal block and then heated from 40 to 90° C. at a ramp-rate of 1° C./min for all experiments. Fluorescence was measured by continuous illumination with UV light (Hamamatsu LC6) supplied via fiber optics and filtered through a band-pass filter (380-400 nm; >60D cutoff). Fluorescence emission of the entire 384-well plate was detected by measuring light intensity using a CCD camera (Sensys, Roper Scientific) filtered to detect 500±25 nm, resulting in simultaneous and independent readings of all 384 wells. A single image with 20-sec exposure time was collected at each temperature, and the sum of the pixel intensity in a given area of the assay plate was recorded vs temperature and fit to standard equations to yield the Tm (J Biomol Screen 2001, 6, 429-40).
Thermodynamic parameters necessary for fitting compound binding for each proMMP were estimated by differential scanning calorimetry (DSC) and from ThermoFluor® data. The heat capacity of unfolding for each protein was estimated from the molecular weight and from ThermoFluor® dosing data.
ThermoFluor® with proMMP13(1-268) (SEQ ID NO: 7)
The proMMP13(1-268) (SEQ ID NO:7) protein sample preparations included a desalting buffer exchange step via a PD-10 gravity column (GE Healthcare). The desalting buffer exchange was performed prior to diluting the protein to the final assay concentration of 3.5 μM. The concentration of proMMP13(1-268) (SEQ ID NO:7) was estimated spectrophotometrically based on a calculated extinction coefficient of ε280=37000 M^−1cm^−1, a calculated molecular weight of 30.8 kDa, and calculated pI of 5.33. ThermoFluor® reference conditions were defined as follows: 100 μg/mL proMMP13(1-268) (SEQ ID NO:7), 25 μM 1,8-ANS, pH 7.0 Buffer (50 mM HEPES pH 7.0, 100 mM NaCl, 0.001% Tween-20, 2.5 mM MgCl2, 300 μM CaCl2). The thermodynamic parameters for proMMP13(1-268) (SEQ ID NO:7) are as follows: Tm (° C.)=67 (+/−0.1), ΔUH(Tm) (cal mol^−1)=107000(+/−5000), ΔUS(Tm) (cal mol^−1 K^−1)=318, ΔUCp (cal mol^−1 K^−1)=2600.

[2] = molecular target: T2, proMMP9(67-444;ΔFnII) (SEQ ID NO:5) (Homo sapiens, UniProt P14780, DEL216-390); experiment: ThermoFluor binding assay with proMMP9(67-444;ΔFnII)
T2 construct: start methionine (N); made in house; host or cells: E. coli BL21(DE3) RIL
T2 sequence (P14780 with tags, fused parts or gaps DEL216-390): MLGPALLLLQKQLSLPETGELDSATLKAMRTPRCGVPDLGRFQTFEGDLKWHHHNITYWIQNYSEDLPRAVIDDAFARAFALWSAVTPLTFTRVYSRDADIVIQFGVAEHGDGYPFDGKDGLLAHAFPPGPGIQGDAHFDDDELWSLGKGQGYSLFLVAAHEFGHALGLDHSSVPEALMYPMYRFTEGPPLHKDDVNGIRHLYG
Summary of the method: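 Thermal shift with 3.5 μM desalted proMMP9(67-444;ΔFnII) and 50 μM 1,8-ANS in 50 mM HEPES pH 7.0, 100 mM NaCl, 0.001% Tween-20, 2.5 mM MgCl2, 300 μM CaCl2; compounds serially diluted. Heated 40–90 °C at 1 °C/min, fluorescence at 500 nm; Tm fit, binding modelled using DSC-derived thermodynamic parameters.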

[3] = molecular target: T3, full-length proMMP9(1-707) (SEQ ID NO:1), activation by catalytic MMP3 (Homo sapiens, UniProt P14780, R574P); experiment: proMMP9/MMP3 P126 Activation Assay; format: biochemical
T3 construct: made in house; host or cells: HEK293 (proMMP9, secreted); E. coli (MMP3)
T3 sequence (P14780 20-707 R574P): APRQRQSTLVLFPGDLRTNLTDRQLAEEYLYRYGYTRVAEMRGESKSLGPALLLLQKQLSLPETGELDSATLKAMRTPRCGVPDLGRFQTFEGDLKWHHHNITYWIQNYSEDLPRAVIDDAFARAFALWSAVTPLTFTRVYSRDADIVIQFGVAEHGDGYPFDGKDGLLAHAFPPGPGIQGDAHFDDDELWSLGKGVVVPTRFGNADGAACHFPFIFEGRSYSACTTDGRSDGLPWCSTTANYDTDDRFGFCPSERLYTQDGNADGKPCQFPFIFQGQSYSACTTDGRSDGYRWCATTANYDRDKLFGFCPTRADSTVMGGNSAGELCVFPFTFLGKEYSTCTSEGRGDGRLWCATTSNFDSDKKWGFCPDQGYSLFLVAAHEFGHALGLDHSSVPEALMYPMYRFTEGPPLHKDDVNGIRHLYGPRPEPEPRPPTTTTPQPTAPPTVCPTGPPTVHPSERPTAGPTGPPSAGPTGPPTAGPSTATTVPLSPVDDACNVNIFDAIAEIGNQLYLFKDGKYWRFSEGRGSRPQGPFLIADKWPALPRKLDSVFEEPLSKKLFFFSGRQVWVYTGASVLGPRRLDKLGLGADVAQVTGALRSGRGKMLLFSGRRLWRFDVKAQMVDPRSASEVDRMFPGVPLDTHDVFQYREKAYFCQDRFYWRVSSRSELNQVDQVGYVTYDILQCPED
Experimental: proMMP9/MMP3 P126 Activation Assay
The reaction volume was 50 μL. […] Reactivity of residual MMP3 towards P-126 substrate was minimal under these conditions.

[4] = molecular target: T4, proMMP9(20-445;ΔFnII) (SEQ ID NO:6) (Homo sapiens, UniProt P14780, DEL216-390); experiment: ThermoFluor binding assay with proMMP9(20-445;ΔFnII)
T4 construct: start methionine (N); made in house; host or cells: E. coli BL21(DE3) RIL
T4 sequence (P14780 with tags, fused parts or gaps DEL216-390): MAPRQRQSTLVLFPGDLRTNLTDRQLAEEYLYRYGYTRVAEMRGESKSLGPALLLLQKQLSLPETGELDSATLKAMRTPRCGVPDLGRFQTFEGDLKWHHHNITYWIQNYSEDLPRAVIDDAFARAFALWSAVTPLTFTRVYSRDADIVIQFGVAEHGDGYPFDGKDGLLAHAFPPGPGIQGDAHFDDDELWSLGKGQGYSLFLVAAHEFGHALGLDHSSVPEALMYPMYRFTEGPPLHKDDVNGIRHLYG
Summary of the method: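 Thermal-shift binding using 2.8 μM proMMP9(20-445;ΔFnII) with 50 μM 1,8-ANS in 50 mM HEPES pH 7.0, 100 mM NaCl, 0.001% Tween-20, 2.5 mM MgCl2, 300 μM CaCl2. Compound serially diluted; heated 40–90 °C at 1 °C/min, fluorescence 500 nm. Tm shifts fitted using DSC/ThermoFluor-derived thermodynamic parameters.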

| Kd [1] | Kd [2] | IC50 [3] | Kd [4] | Structure (SMILES) |
| --- | --- | --- | --- | --- |
| 12000 nM | 3300 nM | 5000 nM | 1300 nM | COc1ccc(C(N)=O)cc1Nc1nc(-c2cccnc2)cs1 [Example 4, 4-Methoxy-3-(4-pyridin-3-yl-thiazol-2-ylamino)-benzamide.HBr] |
| 6200 nM | 14000 nM | ~4000 nM | 27000 nM | Cc1cc(C)c(-c2csc(Nc3cc(C(N)=O)ccc3OC(C)C)n2)c(C)n1 [Example 19, 4-Isopropoxy-3-[4-(2,4,6-trimethyl-pyridin-3-yl)-thiazol-2-ylamino]-benzamide.TFA] |
| 2600 nM | 1500 nM | 740 nM | 730 nM | CCOc1ccc(C(N)=O)cc1Nc1nc(-c2cccnc2)cs1 [Example 2, 4-Ethoxy-3-(4-pyridin-3-yl-thiazol-2-ylamino)-benzamide.TFA] |
| 1800 nM | 2000 nM | 460 nM | 170 nM | COc1ccc(-c2csc(Nc3cc(C(N)=O)ccc3OC(C)C)n2)cn1 [Example 25, 4-Isopropoxy-3-[4-(6-methoxy-pyridin-3-yl)-thiazol-2-ylamino]-benzamide.TFA] |
| 18000 nM | 43000 nM | 2600 nM | 7400 nM | COc1ccc(C#N)cc1Nc1nc(-c2cccnc2)cs1 [Example 9, 4-Methoxy-3-(4-pyridin-3-yl-thiazol-2-ylamino)-benzonitrile.HBr] |
| 930 nM | 1900 nM | 500 nM | 210 nM | CC(C)Oc1ccc(C(N)=O)cc1Nc1nc(-c2ccccn2)cs1 [Example 14, 4-Isopropoxy-3-(4-pyridin-2-yl-thiazol-2-ylamino)-benzamide] |
| 3300 nM | 660 nM | 670 nM | 26000 nM | CCOc1ccc(-c2ncco2)cc1Nc1nc(-c2cccnc2)cs1 [Example 18, (2-Ethoxy-5-oxazol-2-yl-phenyl)-(4-pyridin-3-yl-thiazol-2-yl)-amine.HBr] |
| 3700 nM | > 95000 nM | ~3000 nM | 2200 nM | Cc1nc(C(F)(F)F)ccc1-c1csc(Nc2cc(C(N)=O)ccc2OC(C)C)n1 [Example 24, 4-Isopropoxy-3-[4-(2-methyl-6-trifluoromethyl-pyridin-3-yl)-thiazol-2-ylamino]-benzamide.TFA] |
| 1500 nM | 5700 nM | 4300 nM | 3600 nM | CC(C)Oc1ccc(C(=O)O)cc1Nc1nc(-c2cccnc2)cs1 [Example 17, 4-Isopropoxy-3-(4-pyridin-3-yl-thiazol-2-ylamino)-benzoic acid.TFA] |
| > 95000 nM | 33000 nM | ~19000 nM | 53000 nM | COc1ccc(CC(N)=O)cc1Nc1nc(-c2cccnc2)cs1 [Example 5, 2-[4-Methoxy-3-(4-pyridin-3-yl-thiazol-2-ylamino)-phenyl]-acetamide] |
| 2900 nM | 5700 nM | 4600 nM | 1300 nM | CC(C)Oc1ccc(C(N)=O)cc1Nc1nc(-c2cncc(Br)c2)cs1 [Example 22, 3-[4-(5-Bromo-pyridin-3-yl)-thiazol-2-ylamino]-4-isopropoxy-benzamide.TFA] |
| > 95000 nM |  | > 20000 nM | 36000 nM | NS(=O)(=O)c1ccc(OC(F)(F)F)c(Nc2nc(-c3cccnc3)cs2)c1 [Example 59, 3-(4-Pyridin-3-yl-thiazol-2-ylamino)-4-trifluoromethoxy-benzenesulfonamide] |
|  | 220 nM | 59 nM | 51 nM | CC(C)Oc1ccc(S(N)(=O)=O)cc1Nc1nc(-c2ccc(N3CCC(N(C)C)CC3)nc2)cs1 [Example 41, 3-[4-(4-Dimethylamino-3,4,5,6-tetrahydro-2H-[1,2′]bipyridinyl-5′-yl)-thiazol-2-ylamino]-4-isopropoxy-benzenesulfonamide.TFA] |
|  | 1700 nM | 200 nM | 120 nM | CC(C)Oc1ccc(S(N)(=O)=O)cc1Nc1nc(-c2ccc(N(C)CCN(C)C)nc2)cs1 [Example 43, 3-(4-{6-[(2-Dimethylamino-ethyl)-methyl-amino]-pyridin-3-yl}-thiazol-2-ylamino)-4-isopropoxy-benzenesulfonamide.TFA] |
|  | 2900 nM | 1800 nM | 370 nM | CC(C)Cc1ccc(C(N)=O)cc1Nc1nc(-c2ccc(N3CCN(C)CC3)nc2)cs1 [Example 8, 4-Isobutyl-3-{4-[6-(4-methyl-piperazin-1-yl)-pyridin-3-yl]-thiazol-2-ylamino}-benzamide.TFA] |
|  | 1500 nM | 980 nM | 900 nM | CCN1CCN(C(=O)c2ccc(-c3csc(Nc4cc(S(N)(=O)=O)ccc4OC(C)C)n3)cn2)CC1 [Example 47, 4-Isopropoxy-3-{4-[6-(4-ethyl-piperazine-1-carbonyl)-pyridin-3-yl]-thiazol-2-ylamino}-benzenesulfonamide.TFA] |
|  | 990 nM | 210 nM | 82 nM | CC(C)Oc1ccc(C(N)=O)cc1Nc1nc(-c2ccnc(N3CCN(C)CC3)c2)cs1 [Example 28, 4-Isopropoxy-3-{4-[2-(4-methyl-piperazin-1-yl)-pyridin-4-yl]-thiazol-2-ylamino}-benzamide.TFA] |
|  | 6600 nM | 1300 nM | 1300 nM | CC(C)Oc1ccc(S(N)(=O)=O)cc1Nc1nc(-c2ccc(C(=O)N3CCN(C)CC3)nc2)cs1 [Example 46, 4-Isopropoxy-3-{4-[6-(4-methyl-piperazine-1-carbonyl)-pyridin-3-yl]-thiazol-2-ylamino}-benzenesulfonamide.TFA] |
|  | 2300 nM | 840 nM | 360 nM | COc1ccc(C(N)=O)cc1Nc1nc(-c2ccc(N3CCN(C)CC3)nc2)cs1 [Example 32, 4-Methoxy-3-{4-[6-(4-methyl-piperazin-1-yl)-pyridin-3-yl]-thiazol-2-ylamino}-benzamide] |
